From the supplement of paper PMC13380429

Experiments:
Conditions in all cases: 72 h
[1] = tested on: Caco-2; assay: cell viability relative to DMSO; higher = less toxic
[2] = tested on: Calu-3; assay: as above
[3] = tested on: HepG2; assay: as above
[4] = tested on: U2OS; assay: as above
[5] = tested on: Vero E6; assay: as above
[6] = tested on: Caco-2; assay: relative viability EC50 (midpoint between 100% and the lowest measured viability); higher = less toxic
[7] = tested on: Calu-3; assay: as above
[8] = tested on: HepG2; assay: as above
[9] = tested on: U2OS; assay: as above
[10] = tested on: Caco-2; assay: drug sensitivity score (DSS) for viability; higher = more toxic; extreme values may be limits of the assay
[11] = tested on: Calu-3; assay: as above
[12] = tested on: HepG2; assay: as above
[13] = tested on: U2OS; assay: as above
[14] = tested on: Vero E6; assay: as above
[15] = tested on: Vero E6; assay: relative viability EC50 (midpoint between 100% and the lowest measured viability); higher = less toxic

SMILES | cell viability ([1]; 1 nM) [%] | cell viability ([1]; 10 nM) [%] | cell viability ([1]; 100 nM) [%] | cell viability ([1]; 1000 nM) [%] | cell viability ([1]; 10000 nM) [%] | cell viability ([2]; 1 nM) [%] | cell viability ([2]; 10 nM) [%] | cell viability ([2]; 100 nM) [%] | cell viability ([2]; 1000 nM) [%] | cell viability ([2]; 10000 nM) [%] | cell viability ([3]; 1 nM) [%] | cell viability ([3]; 10 nM) [%] | cell viability ([3]; 100 nM) [%] | cell viability ([3]; 1000 nM) [%] | cell viability ([3]; 10000 nM) [%] | cell viability ([4]; 1 nM) [%] | cell viability ([4]; 10 nM) [%] | cell viability ([4]; 100 nM) [%] | cell viability ([4]; 1000 nM) [%] | cell viability ([4]; 10000 nM) [%] | cell viability ([5]; 1 nM) [%] | cell viability ([5]; 10 nM) [%] | cell viability ([5]; 100 nM) [%] | cell viability ([5]; 1000 nM) [%] | cell viability ([5]; 10000 nM) [%] | relative viability EC50 [6] [µM] | relative viability EC50 [7] [µM] | relative viability EC50 [8] [µM] | relative viability EC50 [9] [µM] | drug sensitivity score [10] | drug sensitivity score [11] | drug sensitivity score [12] | drug sensitivity score [13] | drug sensitivity score [14] | relative viability EC50 [15] [µM]
O=C1CNC(=O)CN1 [piperazinedione] | 98.3 | 102 | 98.9 | 99.4 | 94.8 | 91.8 | 99.4 | 91.8 | 93.4 | 94 | 102 | 94.9 | 96.4 | 100 | 103 | 99 | 99 | 97.4 | 101 | 99.8 | 99.5 | 96.4 | 102 | 91.4 | 74.7 | > 10 | > 10 | > 10 | > 10 | 0 | 0 | 0 | 0 | 2.1 | –
C=CC1=C(C)c2cc3[nH]c(cc4nc(cc5[nH]c(cc1n2)c(C)c5CCC(=O)O)C(CCC(=O)O)=C4C)c(C)c3C=C [protoporphyrin-IX] | 101 | 102 | 92.7 | 94.4 | 76.4 | 97.4 | 93.8 | 105 | 97.5 | 84.1 | 102 | 91.1 | 105 | 94.2 | 84.6 | 101 | 101 | 98.2 | 101 | 88.6 | 99.8 | 71.4 | 110 | 75.2 | 78.6 | > 10 | > 10 | > 10 | > 10 | 1.4 | 0.6 | 0.8 | 0 | 2.6 | –
CNC(=O)c1cc(Oc2ccc(NC(=O)Nc3ccc(Cl)c(C(F)(F)F)c3)c(F)c2)ccn1 [regorafenib] | 100 | 105 | 97 | 108 | 66.3 | 102 | 98.8 | 105 | 104 | 74.2 | 102 | 106 | 94.4 | 59.8 | 16.5 | 96.9 | 103 | 100 | 99.8 | 54.5 | 94.7 | 98.9 | 104 | 102 | 60.6 | – | – | 1.03 | – | 1.2 | 0.8 | 9.3 | 2.4 | 1.8 | –
O=C(O)c1ccccc1O [salicylic-acid] | 103 | 97 | 105 | 94.7 | 96.6 | 105 | 91.8 | 90.6 | 88.9 | 105 | 95.4 | 96.1 | 99.3 | 97 | 108 | 99.8 | 99.6 | 98.5 | 96.5 | 102 | – | – | – | – | – | > 10 | > 10 | > 10 | > 10 | 0 | 0 | 0 | 0 | – | –
CC(C)(C)NCC(O)COc1ccc(NC(=O)NC2CCCCC2)cc1 (stereo not drawn) [talinolol] | – | – | – | – | – | – | – | – | – | – | – | – | – | – | – | – | – | – | – | – | – | – | – | – | – | – | – | – | – | – | 0 | 0 | 0 | 0 | –
Cc1coc2c1C(=O)C(=O)c1c-2ccc2c1CCCC2(C)C [tanshinone-IIA] | 97.6 | 95.7 | 92.9 | 103 | 77 | 109 | 105 | 101 | 94.1 | 101 | 90.6 | 105 | 96.5 | 91.4 | 55.4 | 102 | 99.2 | 95.7 | 99.6 | 74.9 | 106 | 104 | 103 | 101 | 97.4 | > 10 | > 10 | – | – | 0.7 | 0 | 3.7 | 1 | 0 | > 10
Cc1ccc(NC2=NCCN2)c(Cl)c1 [tolonidine] | 90.3 | 101 | 93.9 | 99 | 99.5 | 101 | 112 | 96.5 | 106 | 99.3 | 116 | 109 | 109 | 99 | 111 | 101 | 106 | 97.3 | 102 | 96.3 | – | – | – | – | – | > 10 | > 10 | > 10 | > 10 | 0 | 0 | 0 | 0 | – | –
NC[C@H]1CC[C@H](C(=O)O)CC1 [tranexamic-acid] | 106 | 105 | 104 | 98.3 | 96.4 | 101 | 95.5 | 87.8 | 94.7 | 90.9 | – | – | – | – | – | – | – | – | – | – | 98.1 | 101 | 105 | 94.4 | 103 | > 10 | > 10 | – | – | 0 | 0 | – | – | 0 | > 10
